Measured values published in paper PMC9035832, “Synthesis and Evaluation of a Non-Peptide Small-Molecule Drug Conjugate Targeting Integrin αVβ3” (Frontiers in Chemistry, 2022).
Read-outs that look alike come from different tables or passages of the source.

Assays:
integrin α5β1 = biological target: T1, integrin α5β1 (Homo sapiens, UniProt P05556+P08648); assay: ELISA-like competitive integrin binding assay (fibronectin-coated plates)
T1 construct: using the isolated extracellular domain of integrins αVβ3 and α5β1; purchased R&D
Description: (§1) An ELISA-like assay using the isolated extracellular domain of integrins αVβ3 and α5β1 was performed in flat-bottom 96-well immuno plates (Brand) to determine the activities of the synthesized compounds. All wells were coated overnight with the native integrin ligand vitronectin or fibronectin (1) (Table 1) in a carbonate buffer (150 µl/well), followed by washing of each well with the PBS-T buffer (3 × 200 µl/well) (Table 1) and blocking for 1 h with the TS-B buffer (150 µl/well) at RT. […] The protein-coated assay plate was washed with the PBS-T buffer (3 × 200 µl/well), and 50 µl of the dilution series was transferred to the assay plate wells B–G. The TS-B buffer was filled into row A (100 µl/well) as the negative control and row H (50 µl/well) as the positive control. Afterward, the corresponding human integrin (2, 50 µl/well) (Table 1) in the TS-B buffer was added to row B–H and incubated for 1 h at RT. After washing the assay plate with the PBS-T buffer (3 × 200 µl/well), the primary antibody (3, 100 µl/well) (Table 1) was transferred to each well and incubated for 1 h at RT. Then the plate was washed with the PBS-T buffer (3 × 200 µl/well), treated with the secondary antibody (4, 100 µl/well) (Table 1), and incubated for 1 h at RT. The plate was washed with the PBS-T buffer (3 × 200 µl/well), and SeramunBlau® fast2 (Seramun Diagnostics GmbH, 50 µl/well) was added to each well. Staining was stopped with 3 M aq. […] The absorbance was measured with a plate reader at 450 nm and corrected by subtraction of the absorbance at 620 nm. Afterward, the resulting values were plotted and analyzed using OriginPro® 2020b where the inflection point of a DoseResp fit describes the IC50 value. All compounds were tested in duplicates or triplicates for both integrins.
(§2) The affinities (Table 4) of the RGD mimetics (Table 3) toward the integrins αVβ3 and α5β1 were determined in a competitive enzyme-linked immunosorbent assay (ELISA) using recombinant human integrins with the native ligands vitronectin and fibronectin as described in the literature ([Mas-Moruno et al., 2016b]). […]
(§3) Table S1: Proteins and buffers applied in the ELISA-like assay.
(§4) An ELISA-like assay using the isolated extracellular domain of integrins αVβ3 and α5β1 was performed in flat-bottom 96-well immuno plates (Brand) to determine the activities of the synthesised compounds.
(§5) All wells were coated overnight with the native integrin ligand vitronectin or fibronectin (Table S1, (1)) in carbonate buffer (150 µL/well), followed by washing of each well with PBS-T buffer (3×200 µL/well) (Table S1) and blocking for 1 h with TS-B buffer (150 µL/well) at RT. A dilution […]
(§6) 1:10 dilution) in TS-B buffer. The protein-coated assay plate was washed with PBS-T buffer (3×200 µL/well) and 50 µL of the dilution series was transferred to the assay plate wells B-G. TS-B buffer was filled into row A (100 µL/well) as negative control and row H (50 µL/well) as positive control. Afterwards, the corresponding human integrin (2, 50 µL/well)) (Table S1) in TS-B buffer was added to row B-H and incubated for 1 h at RT. After washing the assay plate with PBS-T buffer (3×200 µL/well) the primary antibody (3, 100 µL/well) (Table S1) was transferred to each well and incubated for 1 h at RT. Then the plate was washed with PBS-T buffer (3×200 µL/well), treated with […]

integrin αVβ3 = biological target: T2, integrin αVβ3 (Homo sapiens, UniProt P05106+P06756); assay: ELISA-like competitive integrin binding assay (vitronectin-coated plates)
T2 construct: using the isolated extracellular domain of integrins αVβ3 and α5β1; purchased Sino Biological
Description: as §1, §2, §3, §4, §5, §6

[1] = isolated extracellular domain of human integrin α5β1, ligand fibronectin, Cilengitide as reference on all plates
[2] = isolated extracellular domain of human integrin αVβ3, ligand vitronectin, Cilengitide as reference on all plates

| IC50 (integrin α5β1) [nM] | IC50 (integrin αVβ3) [nM] | SMILES | IC50 (integrin α5β1; [1]) [nM] | IC50 (integrin αVβ3; [2]) [nM] |
| --- | --- | --- | --- | --- |
| 511 ± 183 | 38.7 ± 15.5 | O=C(N[C@@H](Cc1ccc(OCCCCNC2=NCCCN2)cc1)C(=O)O)c1ccc(O)cc1 [6bc] | – | – |
| > 10000 | 8840 | O=C(N[C@@H](Cc1ccc(OCCCCCNc2ncccn2)cc1)C(=O)O)c1ccc(O)cc1 [7bb] | – | – |
| 107 ± 32 | 90.4 ± 31.3 | O=C(N[C@@H](Cc1ccc(OCCCCNC2=NCCCN2)cc1)C(=O)O)c1cccc(O)c1 [6cc] | – | – |
| 2770 | 58.8 ± 14.4 | O=C(N[C@@H](Cc1ccc(OCCCCCNC2=NCCCN2)cc1)C(=O)O)c1ccccc1 [7ac] | – | – |
| 901 ± 223 | 1.2 ± 0.11 | O=C(N[C@@H](Cc1ccc(OCCCCNC2=NCCN2)cc1)C(=O)O)OCc1ccccc1 [6da] | – | – |
| 103 ± 54.4 | 36.4 ± 14.3 | O=C(N[C@@H](Cc1ccc(OCCCCCNC2=NCCCN2)cc1)C(=O)O)c1ccc(O)cc1 [7bc] | – | – |
| 7750 | 3.76 ± 1.98 | O=C(N[C@@H](Cc1ccc(OCCCCCNC2=NCCN2)cc1)C(=O)O)OCc1ccccc1 [7da] | – | – |
| 40 ± 6.5 | 278 ± 69.2 | [N-]=[N+]=NCCOCCOCCOc1ccc(C(=O)N[C@@H](Cc2ccc(OCCCNC3=NCCN3)cc2)C(=O)O)cc1 [10a] | – | – |
| 745 ± 117 | 0.57 ± 0.03 | O=C(N[C@@H](Cc1ccc(OCCCCNC2=NCCCN2)cc1)C(=O)O)OCc1ccccc1 [6dc] | – | – |
| > 10000 | 2.93 ± 0.12 | O=C(N[C@@H](Cc1ccc(OCCCCCNC2=NCCCN2)cc1)C(=O)O)OCc1ccccc1 [7dc] | – | – |
| 6080 | 98.1 ± 74.8 | O=C(N[C@@H](Cc1ccc(OCCCCCNC2=NCCN2)cc1)C(=O)O)c1cccc(O)c1 [7ca] | – | – |
| 35.2 ± 18.4 | 1900 ± 175 | O=C(N[C@@H](Cc1ccc(OCCCCNC2=NCCN2)cc1)C(=O)O)c1ccc(O)cc1 [6ba] | – | – |
| 1690 | 38.5 ± 9.02 | O=C(N[C@@H](Cc1ccc(OCCCCCNC2=NCCN2)cc1)C(=O)O)c1ccccc1 [7aa] | – | – |
| 136 ± 27.4 | 21 ± 5.84 | [N-]=[N+]=NCCOCCOCCOc1ccc(C(=O)N[C@@H](Cc2ccc(OCCCCCNC3=NCCN3)cc2)C(=O)O)cc1 [10c] | – | – |
| > 10000 | 6170 | O=C(N[C@@H](Cc1ccc(OCCCCNc2ncccn2)cc1)C(=O)O)c1ccccc1 [6ab] | – | – |
| 8360 | 2630 | O=C(N[C@@H](Cc1ccc(OCCCCCNc2ncccn2)cc1)C(=O)O)OCc1ccccc1 [7db] | – | – |
| 175 ± 73.7 | 25.8 ± 6.77 | O=C(N[C@@H](Cc1ccc(OCCCCNC2=NCCN2)cc1)C(=O)O)c1ccccc1 [6aa] | – | – |
| 404 ± 282 | 129 ± 2.35 | [N-]=[N+]=NCCOCCOCCOc1ccc(C(=O)N[C@@H](Cc2ccc(OCCCCNC3=NCCN3)cc2)C(=O)O)cc1 [10b] | – | – |

The next lines start with the compound.

| SMILES | IC50 (integrin α5β1) [nM] | IC50 (integrin αVβ3) [nM] | IC50 (integrin α5β1; [1]) [nM] | IC50 (integrin αVβ3; [2]) [nM] |
| --- | --- | --- | --- | --- |
| O=C(NC(Cc1ccc(OCCCCCNC2=NCCN2)cc1)C(=O)O)c1ccc(O)cc1 (stereo not shown) [7ba] | – | – | 1650 | 2.01 ± 0.4 |
| O=C(N[C@@H](Cc1ccc(OCCCNC2=NCCCN2)cc1)C(=O)O)c1cccc(O)c1 [5cc] | 32.8 ± 11.2 | 452 ± 120 | – | – |
| O=C(NC(Cc1ccc(OCCCCNC2=NCCCN2)cc1)C(=O)O)c1ccccc1 (stereo not shown) [6ac] | – | – | 17.5 ± 6.76 | 32.8 ± 17.6 |
| O=C(NC(Cc1ccc(OCCCNc2ncccn2)cc1)C(=O)O)c1ccccc1 (stereo not shown) [5ab] | – | – | > 10000 | 1310 |
| O=C(N[C@@H](Cc1ccc(OCCCCCNC2=NCCCN2)cc1)C(=O)O)c1cccc(O)c1 [7cc] | – | – | 210 ± 44.8 | 42.9 ± 9.47 |
| O=C(N[C@@H](Cc1ccc(OCCCNC2=NCCN2)cc1)C(=O)O)c1ccccc1 [5aa] | 25.2 ± 7.35 | 38.5 ± 24.3 | – | – |
| O=C(N[C@@H](Cc1ccc(OCCCNc2ncccn2)cc1)C(=O)O)c1ccc(O)cc1 [5bb] | > 10000 | 6530 | – | – |
| O=C(N[C@@H](Cc1ccc(OCCCNC2=NCCN2)cc1)C(=O)O)OCc1ccccc1 [5da] | 162 ± 36 | 1.32 ± 0.11 | – | – |
| O=C(NC(Cc1ccc(OCCCCCNc2ncccn2)cc1)C(=O)O)c1ccccc1 (stereo not shown) [7ab] | – | – | > 10000 | 8770 |
| O=C(N[C@@H](Cc1ccc(OCCCNC2=NCCN2)cc1)C(=O)O)c1cccc(O)c1 [5ca] | 30.5 ± 20.7 | 9.29 ± 5.77 | – | – |
| O=C(NC(Cc1ccc(OCCCCNc2ncccn2)cc1)C(=O)O)c1cccc(O)c1 (stereo not shown) [6cb] | – | – | > 10000 | 1850 ± 241 |
| O=C(NC(Cc1ccc(OCCCCCNc2ncccn2)cc1)C(=O)O)c1cccc(O)c1 (stereo not shown) [7cb] | – | – | > 10000 | 2890 |
| O=C(NC(Cc1ccc(OCCCCNc2ncccn2)cc1)C(=O)O)c1ccc(O)cc1 (stereo not shown) [6bb] | – | – | > 10000 | 5290 |
| O=C(N[C@@H](Cc1ccc(OCCCCNC2=NCCN2)cc1)C(=O)O)c1cccc(O)c1 [6ca] | – | – | 19.9 ± 8.7 | 1.01 ± 0.56 |
| O=C(N[C@@H](Cc1ccc(OCCCNC2=NCCCN2)cc1)C(=O)O)OCc1ccccc1 [5dc] | 71.6 ± 16.1 | 4.68 ± 4.47 | – | – |
| O=C(N[C@@H](Cc1ccc(OCCCNC2=NCCCN2)cc1)C(=O)O)c1ccccc1 [5ac] | 17.4 ± 3.34 | 18.1 ± 3.68 | – | – |
| O=C(N[C@@H](Cc1ccc(OCCCNC2=NCCN2)cc1)C(=O)O)c1ccc(O)cc1 [5ba] | – | – | 43.4 ± 24.4 | 38.8 ± 19.2 |
| O=C(N[C@@H](Cc1ccc(OCCCNc2ncccn2)cc1)C(=O)O)c1cccc(O)c1 [5cb] | > 10000 | 7700 | – | – |
| O=C(N[C@@H](Cc1ccc(OCCCNc2ncccn2)cc1)C(=O)O)OCc1ccccc1 [5db] | > 10000 | 237 ± 69.7 | – | – |
| O=C(NC(Cc1ccc(OCCCNC2=NCCCN2)cc1)C(=O)O)c1ccc(O)cc1 (stereo not shown) [5bc] | – | – | 18.5 ± 3.65 | 70.4 ± 0.57 |
